Data published in patent publication US20250304576A1 (Cancer Research Technology Limited, priority 2022, published 2025).

The molecules below were run against T1, IKBKB (IKKβ) (Homo sapiens, UniProt O14920) (assay: Z'-LYTE IKKβ assay (Life Technologies)). Settings: not given.
T1 construct: purchased Life Technologies (assay performed by the vendor)
T1 sequence (O14920 1-756): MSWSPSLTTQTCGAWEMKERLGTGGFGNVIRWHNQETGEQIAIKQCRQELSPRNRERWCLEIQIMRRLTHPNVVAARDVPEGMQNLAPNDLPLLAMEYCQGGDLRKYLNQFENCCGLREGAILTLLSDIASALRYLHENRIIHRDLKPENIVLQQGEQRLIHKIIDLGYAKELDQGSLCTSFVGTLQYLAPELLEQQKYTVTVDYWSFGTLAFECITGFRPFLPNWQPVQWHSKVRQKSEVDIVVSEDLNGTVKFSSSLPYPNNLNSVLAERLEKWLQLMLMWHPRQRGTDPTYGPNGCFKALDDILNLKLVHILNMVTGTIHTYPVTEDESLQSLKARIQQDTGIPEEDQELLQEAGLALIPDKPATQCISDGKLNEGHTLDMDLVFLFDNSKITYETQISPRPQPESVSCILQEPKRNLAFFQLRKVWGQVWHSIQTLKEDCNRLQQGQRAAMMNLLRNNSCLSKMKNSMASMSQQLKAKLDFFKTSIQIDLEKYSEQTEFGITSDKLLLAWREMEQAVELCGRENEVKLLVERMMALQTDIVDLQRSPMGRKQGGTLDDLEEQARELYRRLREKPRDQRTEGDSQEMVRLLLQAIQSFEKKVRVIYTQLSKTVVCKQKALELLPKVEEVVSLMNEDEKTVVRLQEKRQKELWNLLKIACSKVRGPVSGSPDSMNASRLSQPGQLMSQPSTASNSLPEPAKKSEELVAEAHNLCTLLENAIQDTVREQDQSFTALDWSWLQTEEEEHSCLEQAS
Assay type: biochemical
Procedure: IKKα and IKKβ inhibitory activity was determined using three different assays: a dissociation enhanced ligand fluorescent immunoassay (DELFIA) based on the protocol of HTScan™ IKKβ Kinase Assay (Cell Signaling Technology, USA); an Adapta IKKα assay (performed by Life Technologies); a Z′-LYTE™ IKKβ assay (performed by Life Technologies).
The reaction was performed in low volume NBS, black 384-well plates (Corning model 4514).
The test compounds were screened in 1% DMSO (final) in the well. For 10 point titrations, 3-fold serial dilutions were conducted from the starting concentration of 50 mM.
The 2× IKBKB (IKKβ)/Ser/Thr 05 mixture was prepared in 50 mM HEPES pH 7.5, 0.01% BRIJ-35, 10 mM MgCl2, 1 mM EGTA. The final 10 μL Kinase Reaction consisted of 0.62-4 ng IKBKB (IKKβ) and 2 μM Ser/Thr 05 in 50 mM HEPES pH 7.5, 0.01% BRIJ-35, 10 mM MgCl2, 1 mM EGTA.
5 μL of 2× Kinase reaction was incubated with 2.5 μL of ATP solution diluted to a 4× working concentration in Kinase Buffer (50 mM HEPES pH 7.5, 0.01% BRIJ-35, 10 mM MgCl2, 1 mM EGTA) in the presence of […] of 100× test compound in 100% DMSO and 2.4 μL of Kinase buffer.
The resulting kinase reaction was allowed to incubate for 1 hour at room temperature before 5 μL of a 1:64 dilution of Development Reagent B was added and the resulting Development Reaction was incubated for another hour at room temperature. Then the plate was read on a fluorescence plate reader and the data analysed.
A ratiometric method, which calculated the Emission Ratio of donor emission (i.e. coumarin) to acceptor emission (i.e. fluorescein) after excitation of the donor fluorophore at 400 nm, was used to quantitate reaction progress, as shown in the equation below.

Compound | IC50 [nM]
Nc1n[nH]c2ccc(-c3ccnc4[nH]c(CN5CCCCC5)cc34)cc12 [Example 260, 5-(2-(Piperidin-1-ylmethyl)-1H-pyrrolo[2,3-b]pyridine-4-yl)-1H-indazol-3-amine] | 454
Nc1n[nH]c2ccc(-c3ccnc4[nH]c(C5CC5)cc34)cc12 [Example 218, 5-(2-Cyclopropyl-1H-pyrrolo[2,3-b]pyridin-4-yl)-1H-indazol-3-amine] | 17
CN1CCN(C(=O)c2cc3c(-c4ccc5[nH]nc(N)c5c4)ccnc3[nH]2)CC1 [Example 243, (4-(3-Amino-1H-indazol-5-yl)-1H-pyrrolo[2,3-b]pyridin-2-yl)(4-methylpiperazin-1-yl)methanone] | 630
CN(C)CCCNCc1cc2c(-c3ccc4[nH]nc(N)c4c3)ccnc2[nH]1 [Example 258, N^1-((4-(3-amino-1H-indazol-5-yl)-1H-pyrrolo[2,3-b]pyridin-2-yl)methyl)-N^3,N^3-dimethylpropane-1,3-diamine] | 245
Nc1n[nH]c2ccc(-c3ccnc4[nH]c(CCN5CCOCC5)cc34)cc12 [Example 268, 5-(2-(2-Morpholinoethyl)-1H-pyrrolo[2,3-b]pyridin-4-yl)-1H-indazol-3-amine] | 138
Nc1n[nH]c2ccc(-c3ccnc4[nH]c(CN5CCOCC5)cc34)cc12 [Example 262, 5-(2-(Morpholinomethyl)-1H-pyrrolo[2,3-b]pyridine-4-yl)-1H-indazol-3-amine] | 269
Nc1n[nH]c2ccc(-c3ccnc4[nH]c(CC5CCNCC5)cc34)cc12 [Example 272, 5-(2-(Piperidin-4-ylmethyl)-1H-pyrrolo[2,3-b]pyridin-4-yl)-1H-indazol-3-amine] | 53
Nc1n[nH]c2c(C#CCCCN3CCOCC3)cc(-c3ccnc4[nH]ccc34)cc12 [Example 210, 7-(5-Morpholinopent-1-yn-1-yl)-5-(1H-pyrrolo[2,3-b]pyridin-4-yl)-1H-indazol-3-amine] | 1030
C#Cc1cc(-c2ccnc3[nH]ccc23)cc2c(N)n[nH]c12 [Example 200, 7-Ethynyl-5-(1H-pyrrolo[2,3-b]pyridin-4-yl)-1H-indazol-3-amine] | 158
CN1CCN(Cc2cc3c(-c4ccc5[nH]nc(N)c5c4)ccnc3[nH]2)CC1 [Example 263, 5-(2-((4-Methylpiperazin-1-yl)methyl)-1H-pyrrolo[2,3-b]pyridine-4-yl)-1H-indazol-3-amine] | 300
CC(C)(C)OCc1cc2c(-c3ccc4[nH]nc(N)c4c3)ccnc2[nH]1 [Example 227, 5-(2-(tert-Butoxymethyl)-1H-pyrrolo[2,3-b]pyridin-4-yl)-1H-indazol-3-amine] | 388
Nc1n[nH]c2c(C#CC3CCCC3)cc(-c3ccnc4[nH]ccc34)cc12 [Example 203, 7-(Cyclopentylethynyl)-5-(1H-pyrrolo[2,3-b]pyridin-4-yl)-1H-indazol-3-amine] | 1530
Nc1n[nH]c2ccc(-c3ccnc4[nH]c(CNC5CCCCC5)cc34)cc12 [Example 251, 5-(2-((cyclohexylamino)methyl)-1H-pyrrolo[2,3-b]339yridine-4-yl)-1H-indazol-3-amine] | 405
Nc1n[nH]c2ccc(-c3ccnc4[nH]c(CN5CCCCCC5)cc34)cc12 [Example 265, 5-(2-(Azepan-1-ylmethyl)-1H-pyrrolo[2,3-b]pyridine-4-yl)-1H-indazol-3-amine] | 350
Nc1n[nH]c2ccc(-c3ccnc4[nH]c(CN5CCC(F)(F)CC5)cc34)cc12 [Example 261, 5-(2-((4,4-Difluoropiperidin-1-yl)methyl)-1H-pyrrolo[2,3-b]pyridine-4-yl)-1H-indazol-3-amine] | 286
Nc1n[nH]c2ccc(-c3ccnc4[nH]c(CCC5CCCCC5)cc34)cc12 [Example 222, 5-(2-(2-Cyclohexylethyl)-1H-pyrrolo[2,3-b]pyridin-4-yl)-1H-indazol-3-amine] | 268
CC(C)N(C)Cc1cc2c(-c3ccc4[nH]nc(N)c4c3)ccnc2[nH]1 [Example 259, 5-(2-((Isopropyl(methyl)amino)methyl)-1H-pyrrolo[2,3-b]pyridine-4-yl)-1H-indazol-3-amine] | 790
Nc1n[nH]c2ccc(-c3ccnc4[nH]c(CCCN5CCCCC5)cc34)cc12 [Example 269, 5-(2-(3-(Piperidin-1-yl)propyl)-1H-pyrrolo[2,3-b]pyridin-4-yl)-1H-indazol-3-amine] | 46
Nc1n[nH]c2c(C#CC3CC3)cc(-c3ccnc4[nH]ccc34)cc12 [Example 202, 7-(Cyclopropylethynyl)-5-(1H-pyrrolo[2,3-b]pyridin-4-yl)-1H-indazol-3-amine] | 470
CC(C)(C)C#Cc1cc(-c2ccnc3[nH]ccc23)cc2c(N)n[nH]c12 [Example 201, 7-(3,3-Dimethylbut-1-yn-1-yl)-5-(1H-pyrrolo[2,3-b]pyridin-4-yl)-1H-indazol-3-amine] | 1200
Nc1n[nH]c2c(C#CCCCN3CCCCC3)cc(-c3ccnc4[nH]ccc34)cc12 [Example 212, 7-(5-(Piperidin-1-yl)pent-1-yn-1-yl)-5-(1H-pyrrolo[2,3-b]pyridin-4-yl)-1H-indazol-3-amine] | 1140

Same assay, conditions: Life Technologies assay

Compound | IC50 [nM]
CC(C)(N)C#Cc1c(-c2ccc3[nH]nc(N)c3c2)ccnc1N [Example 92, 5-(2-Amino-3-(3-amino-3-methylbut-1-yn-1-yl)pyridin-4-yl)-1H-indazol-3-amine] | 87
Nc1cc(-c2cc(-c3ccccc3)c3[nH]nc(N)c3c2)ccn1 [Example 104, 5-(2-Aminopyridin-4-yl)-7-phenyl-1H-indazol-3-amine] | 162
Nc1nccc(-c2ccc3[nH]nc(N)c3c2)c1C#CCCCN1CCOCC1 [Example 96, 5-(2-Amino-3-(5-morpholinopent-1-yn-1-yl)pyridin-4-yl)-1H-indazol-3-amine] | 705
Nc1cc(-c2cc(-c3ccoc3)c3[nH]nc(N)c3c2)ccn1 [Example 129, 5-(2-Aminopyridin-4-yl)-7-(furan-3-yl)-1H-indazol-3-amine] | 135
Nc1nccc(-c2ccc3[nH]nc(N)c3c2)c1C#CC1CCCCC1 [Example 74, 5-(2-Amino-3-(cyclohexylethynyl)pyridine-4-yl)-1H-indazol-3-amine] | 342
Nc1nccc(-c2ccc3[nH]nc(N)c3c2)c1C#CCCCN1CCCCC1 [Example 95, 5-(2-Amino-3-(5-(piperidin-1-yl)pent-1-yn-1-yl)pyridin-4-yl)-1H-indazol-3-amine] | 545
CC(C)(C)C#Cc1c(-c2ccc3[nH]nc(N)c3c2)ccnc1N [Example 72, 5-(2-Amino-3-(3,3-dimethylbut-1-yn-1-yl)pyridine-4-yl)-1H-indazol-3-amine] | 65
Nc1nccc(-c2ccc3[nH]nc(N)c3c2)c1C#Cc1ccccc1 [Example 75, 5-(2-Amino-3-(phenylethynyl)pyridine-4-yl)-1H-indazol-3-amine] | 101
Nc1nccc(-c2ccc3[nH]nc(N)c3c2)c1C#CC1(O)CCCCCC1 [Example 91, 1-((2-Amino-4-(3-amino-1H-indazol-5-yl)pyridine-3-yl)ethynyl)cycloheptan-1-ol] | 505
CC(C)(C)C#Cc1cc(-c2ccnc(N)c2)cc2c(N)n[nH]c12 [Example 137, 5-(2-Aminopyridin-4-yl)-7-(3,3-dimethylbut-1-yn-1-yl)-1H-indazol-3-amine] | 2300
Nc1nccc(-c2ccc3[nH]nc(N)c3c2)c1C#CC1(O)CCCCC1 [Example 90, 1-((2-Amino-4-(3-amino-1H-indazol-5-yl)pyridine-3-yl)ethynyl)cyclohexan-1-ol] | 205
Nc1nccc(-c2ccc3[nH]nc(N)c3c2)c1C#CCCO [Example 84, 4-(2-Amino-4-(3-amino-1H-indazol-5-yl)pyridine-3-yl)but-3-yn-1-ol] | 53
